Data reported in PMC3014376 (Vaccine, 2010).
Residues, ends and D or L forms follow the SMILES beside them.

Assays:
Assay in all cases: MHC-peptide binding assay
[1] = molecular target: HLA-A*0206 (Homo sapiens, UniProt P04439, D140Y/D185E/D98H/E176V/E277Q/F33Y/G131W/G231S/I119V/I121R/I166T/I218V/L300P/L318F/N151K/N90K/P208A/P217A/Q86G/Q94H/R138H/R169H/T345S)
[2] = molecular target: HLA-A*6802 (Homo sapiens, UniProt P04439, A269V/D140Y/D185E/E176V/E277Q/E87N/F33Y/G231S/I121R/I166T/I218V/L180W/L300P/L318F/N151K/P208A/P217A/Q86R/R138H/R169H/S129P/T345S/V36M)
[3] = molecular target: HLA-A*0202 (Homo sapiens, UniProt P04439, D140Y/D185E/D98H/E176V/E277Q/G131W/G231S/I119L/I121R/I166T/I218V/L180W/L300P/L318F/N151K/N90K/P208A/P217A/Q67R/Q86G/Q94H/R138H/R169H/T345S)

SMILES	IC50 [1] [nM]	IC50 [2] [nM]	IC50 [3] [nM]
CC[C@H](C)[C@H](NC(=O)[C@@H](NC(=O)[C@H](CC(C)C)NC(=O)[C@H](CC(C)C)NC(=O)[C@H](CO)NC(=O)[C@H](CC(C)C)NC(=O)[C@H](CO)NC(=O)[C@H](CC(C)C)NC(=O)[C@@H](N)Cc1ccccc1)C(C)C)C(=O)O [SAG2C38–46] (H-FLSLSLLVI-OH)	> 10000	9830	
CC[C@H](C)[C@H](NC(=O)[C@H](CCSC)NC(=O)[C@@H](N)Cc1ccccc1)C(=O)N[C@@H](C)C(=O)N[C@@H](Cc1ccccc1)C(=O)N[C@H](C(=O)N[C@@H](CO)C(=O)N[C@@H](CS)C(=O)N[C@@H](Cc1ccccc1)C(=O)N[C@@H](C)C(=O)O)[C@@H](C)CC [SAG2D180–189] (H-FMIAFISCFA-OH)	112	397	56
CC[C@H](C)[C@H](NC(=O)[C@@H](NC(=O)[C@@H](N)Cc1ccccc1)C(C)C)C(=O)N[C@@H](Cc1ccccc1)C(=O)N[C@@H](C)C(=O)N[C@@H](CS)C(=O)N[C@@H](CC(N)=O)C(=O)N[C@@H](Cc1ccccc1)C(=O)N[C@H](C(=O)O)C(C)C [SAG2X44–52] (H-FVIFACNFV-OH)	5.6	1.2	
CC[C@H](C)[C@H](NC(=O)[C@H](CO)NC(=O)[C@@H](NC(=O)[C@@H](NC(=O)[C@H](CCSC)NC(=O)[C@@H](N)Cc1ccccc1)[C@@H](C)CC)C(C)C)C(=O)N[C@@H](CO)C(=O)N[C@@H](CC(C)C)C(=O)N[C@H](C(=O)O)C(C)C [SAG2X351–359] (H-FMIVSISLV-OH)	6.2	48	1.8
CC[C@H](C)[C@H](NC(=O)[C@H](Cc1ccc(O)cc1)NC(=O)[C@H](CC(=O)O)NC(=O)[C@@H](NC(=O)[C@H](CC(C)C)NC(=O)[C@@H](N)Cc1ccccc1)[C@@H](C)O)C(=O)N1CCC[C@H]1C(=O)NCC(=O)N[C@@H](C)C(=O)O [SAG3_136–144] (H-FLTDYIPGA-OH)	1.2	2100	7.1
CC(C)C[C@H](NC(=O)CNC(=O)[C@H](CC(C)C)NC(=O)[C@H](CC(C)C)NC(=O)[C@@H](N)Cc1ccccc1)C(=O)N[C@@H](CC(C)C)C(=O)N[C@H](C(=O)N[C@@H](Cc1c[nH]cn1)C(=O)N[C@H](C(=O)O)C(C)C)C(C)C [SAG3_375–383] (H-FLLGLLVHV-OH)	9.9	173	37
CC[C@H](C)[C@H](N)C(=O)N[C@H](C(=O)N[C@@H](CCSC)C(=O)NCC(=O)N[C@@H](CO)C(=O)N[C@@H](CC(C)C)C(=O)N[C@@H](Cc1ccccc1)C(=O)N[C@@H](Cc1ccccc1)C(=O)N[C@H](C(=O)O)C(C)C)[C@@H](C)O [SPA12–20] (H-ITMGSLFFV-OH)	0.26	1.1	0.64
CC(C)C[C@H](NC(=O)CN)C(=O)N[C@@H](C)C(=O)N[C@@H](C)C(=O)N[C@@H](C)C(=O)N[C@H](C(=O)N[C@H](C(=O)N[C@@H](C)C(=O)N[C@H](C(=O)O)C(C)C)C(C)C)C(C)C [SPA82–90] (H-GLAAAVVAV-OH)	55	263	
